Starred links: 1 amine or outer side, 2 acyl side, 3 side chain; linkers in the order of their positions; H or OH if unused. Non-standard residues stand in square brackets, D forms with d. Residues, ends and D or L forms follow the SMILES beside them. X10 = NCCCC[C@H](NC(=S)[C@@H](Cc1c[nH]c2ccccc12)N[*:1])C(=O)[*:2]; X12 = C[C@@H](O)[C@H](N[*:1])C(=S)N[C@@H](Cc1ccccc1)C(=O)[*:2]; X7 = C[C@@H](O)[C@H](NC(=S)[C@H](CCCCN)N[*:1])C(=O)[*:2]; X2 = CC(C)C[C@H](NC(=S)[C@@H](CC(C)C)N[*:1])C(=O)[*:2]; X8 = O=C([C@H](Cc1ccccc1)NC(=S)[C@@H]1CCCN1[*:1])[*:2]
Assays:
[1] = PAMPA passive permeability; type: in vitro ADME;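 also: passive permeability across an artificial membrane in 96-well pre-coated PAMPA plates, which lack transporters and efflux systems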
Procedure: Encouraged by this, the passive permeability of the analogs was evaluated using an artificial membrane (PAMPA), which measures permeability of compounds in the absence of transporters and efflux systems[32].
96-well BD Corning® pre-coated PAMPA plates were used following the supplier’s protocol, details in Supplementary Information.

[2] = type: physicochemical
in vitro [3] = details: both, human, plasma
Procedure: (§1) Blood was freshly drawn from three healthy adults, two male and one person of 26–28 year old. […] The plasma was separated by centrifugation. […] For checking metabolic stability, the required volume of plasma was pre-incubated at 37 °C prior to the experiment for 2 min, followed by spiking with the peptides. At different time points, plasma was aliquoted. The supernatant was separated and used for RP-HPLC quantification. Rapid Equilibrium Dialysis (RED) assay was performed to assess the plasma protein binding of the peptides following the supplier’s protocol.

in vitro [4] = details: both, human, plasma; remark: listed apart in the source
Procedure: as §1

physchem = details: pH 7.4
in vitro [5] = details: pig, simulated intestinal fluid
in vivo [6] = details: male, Wistar, rat
Procedure: (§2) All animals were housed individually in the animal facility at Anthem Biosciences Pvt. Ltd and were acclimatized for 3 days. All animals were fasted overnight before dosing, whereas access to water was provided ad libitum. Peptides were administered orally and via s.c. route and blood samples were collected at different time points through a jugular vein catheter.

[7] = type: physicochemical; remark: listed apart in the source
[8] = HDX of amide protons by NMR in DMSO-d6:D2O (8:2); details: HDX by NMR, 20% D2O in DMSO-d6
Procedure: (§3) As hydrogen bonding and solvation of NH groups play an important role in the permeability of macrocycles, we determined the solvent accessibility of individual amide protons in 10 and 10a–10f by hydrogen-deuterium exchange (HDX) through NMR spectroscopy (Figs. 2a–c).
(§4) Spectra were recorded on a Bruker AV 500 MHz spectrometer at 25 °C.

Caco-2 cells = assay: in vitro; type: in vitro ADME, human; details: Caco-2
Procedure: (§5) The Caco-2 cell (HTB-37^TM from ATCC, procured from NCCS, Pune) monolayer was washed and pre-incubated at 37 °C and 5% CO2 for 30 min with HBSS-HEPES buffer containing 1% DMSO prior to experimentation. The assay was performed 21 days post-seeding of cells. TEER values were measured before starting and after the completion of the assay. Acceptor and donor well concentrations of the peptides and controls were assessed through LC-MS/MS.

in vitro [9] = type: in vitro ADME, human
Procedure: as §5

[10] = Retention in hydrophobic C18 column by HPLC; details: Supplementary Fig 3d, logD7.4 vs tR
[11] = HDX of amide protons by NMR in CDCl3:CD3OD (8:2)
Procedure: as §3, §4

in vitro [12] = details: human, microsomes
Procedure: (§6) A stability assessment of the peptides was done in simulated gastric (SGF) and intestinal (SIF) fluids and human liver microsomes. The degradation kinetics of the aliquoted samples at desired time points were analyzed through RP-HPLC.

pepsin = pepsin (Sus scrofa, UniProt P00791); assay: in vitro; details: simulated gastric fluid, pH 1.2
Sequence of pepsin (P00791 60-385): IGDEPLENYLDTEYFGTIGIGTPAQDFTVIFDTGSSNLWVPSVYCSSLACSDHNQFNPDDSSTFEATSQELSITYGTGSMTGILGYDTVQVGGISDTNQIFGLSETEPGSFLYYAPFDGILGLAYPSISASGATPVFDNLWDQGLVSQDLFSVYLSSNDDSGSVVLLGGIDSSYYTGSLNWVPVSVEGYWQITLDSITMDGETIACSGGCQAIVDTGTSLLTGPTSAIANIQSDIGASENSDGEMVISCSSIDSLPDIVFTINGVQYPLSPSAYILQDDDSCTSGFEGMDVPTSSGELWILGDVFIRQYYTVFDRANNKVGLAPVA
Procedure: as §6

[13] = rat, in vivo, po, 10 mg/kg
Procedure: as §2

in vivo [14] = details: male, rat, sc; for half-life: Sprague-Dawley
Procedure: Subsequently, we selected 13a, 13b, 13d, and 13e for assessing their plasma exposure post single dose subcutaneous injection into male Sprague Dawley rats.
as §2

SSTR2 = molecular target: T1, SSTR2 (Homo sapiens, UniProt P30874); assay: GloSensor assay, inhibition of forskolin-induced cAMP production; type: cell-based; details: for binding against SSTR2 (in words): HEK293T cells expressing SSTR2, cAMP GloSensor; for IC50: read-out: IC50 sstr2
T1 construct: expressed in transfected cells; host or cells: HEK-293T (CRL-3216)
T1 sequence (P30874 whole entry): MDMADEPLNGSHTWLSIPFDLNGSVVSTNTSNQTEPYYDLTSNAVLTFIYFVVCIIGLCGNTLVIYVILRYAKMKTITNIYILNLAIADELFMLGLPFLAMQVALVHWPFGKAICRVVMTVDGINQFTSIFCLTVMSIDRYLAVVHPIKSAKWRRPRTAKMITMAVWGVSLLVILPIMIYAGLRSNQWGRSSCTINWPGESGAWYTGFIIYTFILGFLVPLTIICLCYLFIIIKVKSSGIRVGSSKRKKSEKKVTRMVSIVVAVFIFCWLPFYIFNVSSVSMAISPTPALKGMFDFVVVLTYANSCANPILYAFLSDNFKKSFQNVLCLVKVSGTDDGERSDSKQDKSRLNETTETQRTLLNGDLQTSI

SSTR5 = molecular target: T2, SSTR5 (Homo sapiens, UniProt P35346); assay: as above; type: cell-based; details: for binding against SSTR5 (in words): HEK293T cells expressing SSTR5, cAMP GloSensor
T2 construct: expressed in transfected cells; host or cells: HEK-293T (CRL-3216)
T2 sequence (P35346 whole entry): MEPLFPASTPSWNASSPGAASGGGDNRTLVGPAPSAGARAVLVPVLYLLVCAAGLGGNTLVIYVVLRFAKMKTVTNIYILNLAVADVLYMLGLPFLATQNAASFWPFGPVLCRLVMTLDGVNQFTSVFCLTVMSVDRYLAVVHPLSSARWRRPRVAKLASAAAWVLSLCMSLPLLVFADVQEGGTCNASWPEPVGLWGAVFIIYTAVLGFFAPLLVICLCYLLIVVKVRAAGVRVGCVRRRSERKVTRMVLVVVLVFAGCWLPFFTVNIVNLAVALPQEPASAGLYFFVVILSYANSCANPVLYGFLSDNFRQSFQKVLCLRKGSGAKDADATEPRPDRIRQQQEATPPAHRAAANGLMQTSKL
Procedure: HEK-293T cells (CRL-3216 from ATCC, procured from NCCS, Pune) were co-transfected with human somatostatin receptor subtypes 2 & 5, plasmid cDNA, and cAMP biosensor (pGloSensorTM-22F plasmid; Promega Corp.) using PEImax. Ligand incubation was followed by the addition and incubation of forskolin (FSK) to the plate. Dose-dependent inhibition of forskolin-induced cAMP production by the peptide ligands was measured using a luminescence plate reader. An elaborate description of the assay setup has been provided in Supplementary Information.

[15] = tested on: growth hormone (GH) release; assay: In vivo inhibition of growth hormone release (sandwich ELISA); parameters: species or system rats; details: for AUC 0_24: growth hormone AUC 0-24 h; for AUC 0_24 / AUC 0_48 / AUC 24_48: mean of n = 3; for AUC 0_48: growth hormone AUC 0-48 h; for AUC 24_48: growth hormone AUC 24-48 h
Procedure: In vivo inhibition of GH. Finally, we estimated the in vivo efficacy of 13 and the thioamidated analogs 13b, 13d, and 13e in suppressing the release of growth hormone (GH) post subcutaneous injection at 250 μg/kg dosage (Fig. 7e). 13a was also included as a negative control to assess its effect on GH release. The rats were bled from their orbital sinus, and the plasma GH levels were evaluated through sandwich ELISA. […] This correlates well with the high plasma concentration of 13 at the initial time points and a rapid drop within 2 h of s.c. administration (Fig. 7c). […] In contrast, the inhibitory effect lasts longer in 13b, 13d, and 13e showing a significant reduction in plasma GH levels within 24–48 h (Fig. 7h). […] The rapid drop in plasma concentration of 13 is responsible for its least in vivo efficacy.
Animal housing and acclimatization were done at Central Animal Facility, IISc Bangalore, as mentioned in the previous section, following protocols from the IEAC and CPCSEA. […] Samples were processed as discussed in Supplementary Information, and sandwich ELISA was performed to measure the growth hormone level in blood plasma. For acute toxicity, after peptide injection (s.c.), blood samples were collected on the 14th day for liver and kidney function tests.

[16] = 20% CD3OD in CDCl3, % remaining after 24 hours
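For Papp A-B avg (second block) in this document: Caco-2 monolayers used 21 days after seeding in HBSS-HEPES buffer with 1% DMSO, donor and acceptor levels quantified by LC-MS/MS, TEER checked before and after.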
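For Papp A-B set 1 (second block) in this document: Caco-2 monolayers used 21 days after seeding in HBSS-HEPES buffer with 1% DMSO, donor and acceptor levels quantified by LC-MS/MS, TEER checked before and after.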
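For Papp A-B set 2 (second block) in this document: Caco-2 monolayers used 21 days after seeding in HBSS-HEPES buffer with 1% DMSO, donor and acceptor levels quantified by LC-MS/MS, TEER checked before and after.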
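For Papp B-A avg (second block) in this document: Caco-2 monolayers used 21 days after seeding in HBSS-HEPES buffer with 1% DMSO, donor and acceptor levels quantified by LC-MS/MS, TEER checked before and after.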

Procedure for human liver microsomes: as §6

Structure (SMILES): CC(C)C[C@@H]1NC(=O)[C@H](Cc2ccc(O)cc2)NC(=O)[C@H]2CCCN2C(=O)[C@H](CC(C)C)NC(=O)[C@H](CC(C)C)NC(=S)[C@@H](CC(C)C)NC1=O [10a] (cyclo(L[dP]YL[X2]))
- Pe set1 [1]: 8.08 ×10⁻⁶ cm/s
- Pe set2 [1]: 12.5 ×10⁻⁶ cm/s
- Pe set3 [1]: 11.81 ×10⁻⁶ cm/s
- Papp ([1]; Pe Avg): 10.8 ×10⁻⁶ cm/s
- logD heptane ethylene glycol [2]: 0.97
- fraction unbound (in vitro [3]): 0.28
- half-life (in vitro [4]): 22 h
- remaining at 1 h (in vitro [4]): 94%
- remaining at 3 h (in vitro [4]): 84%
- remaining at 5 h (in vitro [4]): 78%
- remaining at 7 h (in vitro [4]): 72%
- remaining at 9 h (in vitro [4]): 66%
- remaining at 12 h (in vitro [4]): 56%
- remaining at 24 h (in vitro [4]): 45%
- remaining at 36 h (in vitro [4]): 33%
- remaining at 48 h (in vitro [4]): 23%
- remaining at 60 h (in vitro [4]): 22%
- remaining at 72 h (in vitro [4]): 21%
- logD (physchem): 1.21
- half-life (in vitro [5]): 2.45 h
- remaining at 10 min (in vitro [5]): 78.4%
- remaining at 0.5 h (in vitro [5]): 66%
- remaining at 1 h (in vitro [5]): 55.9%
- remaining at 2 h (in vitro [5]): 49.2%
- remaining at 4 h (in vitro [5]): 34%
- remaining at 8 h (in vitro [5]): 26.3%
- remaining at 12 h (in vitro [5]): 18.8%
- remaining at 24 h (in vitro [5]): 11%
- AUC(0-t) (in vivo [6]; iv): 146 ng·h/mL
- Cmax (in vivo [6]; iv): 48.1 ng/mL
- MRT (in vivo [6]; iv): 2.8 h
- Vd (in vivo [6]; iv): 28.6 L/kg
- clearance (in vivo [6]; iv): 91.1 mL/min/kg
- bioavailability (in vivo [6]; po): 1.8%
- AUC(0-t) (in vivo [6]; po, 10 mg/kg): 26.9 ng·h/mL
- Cmax (in vivo [6]; po, 10 mg/kg): 15 ng/mL
- MRT (in vivo [6]; po, 10 mg/kg): 2 h
- level at 3 h (in vivo [6]; po, 10 mg/kg): 3 ng/mL
- % solubility [7]: 58%
- Half-life of D-Leu1 amide proton (HDX) [8]: 2.83 h
- Half-life of Leu2 amide proton (HDX) [8]: 1.83 h
- Half-life of Leu3 amide proton (HDX) [8]: 12 h
- Half-life of Leu6 amide proton (HDX) [8]: 13.3 h
- Half-life of Tyr5 amide proton (HDX) [8]: 0.838 h
- Papp A-B avg (second block) (Caco-2 cells): 3.25 ×10⁻⁶ cm/s
- Papp A-B set 1 (second block) (Caco-2 cells): 3.14 ×10⁻⁶ cm/s
- Papp A-B set 2 (second block) (Caco-2 cells): 3.36 ×10⁻⁶ cm/s
- Papp B-A avg (second block) (Caco-2 cells): 75.4 ×10⁻⁶ cm/s
- Papp B-A set 1 (second block) (Caco-2 cells): 77.4 ×10⁻⁶ cm/s
- Papp B-A set 2 (second block) (Caco-2 cells): 73.3 ×10⁻⁶ cm/s
- Papp A→B (in vitro [9]; Caco-2, Papp A-B + Elacridar avg): 13 ×10⁻⁶ cm/s
- Papp A→B (in vitro [9]; Caco-2, Papp A-B avg): 3.25 ×10⁻⁶ cm/s
- Papp B→A (in vitro [9]; Caco-2, Papp B-A + Elacridar avg): 16.9 ×10⁻⁶ cm/s
- Papp B→A (in vitro [9]; Caco-2, Papp B-A avg): 75.4 ×10⁻⁶ cm/s
- tR [10]: 10.8 min
- Half-life of D-Leu1 amide proton (HDX) ([11]; 20% CD3OD in CDCl3): 19.25 h
- Half-life of Leu2 amide proton (HDX) ([11]; 20% CD3OD in CDCl3): 0.333 h
- Half-life of Leu3 amide proton (HDX) ([11]; 20% CD3OD in CDCl3): > 24 h
- Half-life of Leu6 amide proton (HDX) ([11]; 20% CD3OD in CDCl3): > 24 h
- Half-life of Tyr5 amide proton (HDX) ([11]; 20% CD3OD in CDCl3): > 24 h
- % intact NH, Leu3 [11, 16]: 80%
- % intact NH, Leu6 [11, 16]: 89%
- % intact NH, Tyr5 [11, 16]: 80%
- microsomal CLint (in vitro [12]): 29.5 µL/min/mg
- remaining at 5 min (in vitro [12]): 75%
- remaining at 10 min (in vitro [12]): 65%
- remaining at 20 min (in vitro [12]): 64%
- remaining at 0.5 h (in vitro [12]): 58%
- remaining at 0.75 h (in vitro [12]): 52%
- remaining at 1 h (in vitro [12]): 44%
- half-life (pepsin): 0.7 h
- remaining at 5 min (pepsin): 83%
- remaining at 10 min (pepsin): 74%
- remaining at 20 min (pepsin): 63%
- remaining at 0.5 h (pepsin): 56%
- remaining at 1 h (pepsin): 42%
- remaining at 2 h (pepsin): 34%
- remaining at 4 h (pepsin): 31%
- remaining at 8 h (pepsin): 19%
- remaining at 12 h (pepsin): 11%
- remaining at 24 h (pepsin): 7%
- AUClast p.o [13]: 26.9 ng·h/mL
- time over which the peptide is detectable in plasma [13]: ≥ 8 h
- Half lives (human liver microsomes): 46.9

Structure (SMILES): C[C@@H](O)[C@@H]1NC(=O)[C@H](CCCCN)NC(=S)[C@@H](Cc2c[nH]c3ccccc23)NC(=O)[C@H](Cc2ccccc2)NC(=O)[C@@H]2CCCN2C(=O)[C@H](Cc2ccccc2)NC1=O [13a] (cyclo(FPF[X10]T))
- level at 0.5 h (in vivo [14]; Sprague Dawley): 146 ng/mL
- level at 1 h (in vivo [14]; Sprague Dawley): 107 ng/mL
- level at 2 h (in vivo [14]; Sprague Dawley, 250 ug/kg): 40 ng/mL
- half-life (in vivo [14]): 0.7 ± 0.1 h
- Papp ([1]; Pe): 2.45 ×10⁻⁶ cm/s
- logD heptane ethylene glycol [2]: -0.94
- fraction unbound (in vitro [3]): 0.11
- half-life (in vitro [4]): 34 h
- logD (physchem): -0.65
- binding against SSTR2 (in words) (SSTR2): complete loss in binding
- IC50 (SSTR2): > 10 µM
- IC50 (SSTR5): > 10 µM
- binding against SSTR5 (in words) (SSTR5): complete loss in binding
- AUC 0_24 [15]: 1085 ng·h/mL
- AUC 0_48 [15]: 2274 ng·h/mL
- AUC 24_48 [15]: 1188 ng·h/mL
- t1/2 in SIF (pancreatin): over 72 h

Structure (SMILES): C[C@@H](O)[C@@H]1NC(=S)[C@H](CCCCN)NC(=O)[C@@H](Cc2c[nH]c3ccccc23)NC(=O)[C@H](Cc2ccccc2)NC(=O)[C@@H]2CCCN2C(=O)[C@H](Cc2ccccc2)NC1=O [13b] (cyclo(FPF[dW][X7]))
- level at 0.5 h (in vivo [14]; Sprague Dawley): 72 ng/mL
- level at 1 h (in vivo [14]; Sprague Dawley): 44 ng/mL
- half-life (in vivo [14]): 0.6 ± 0.2 h
- Papp ([1]; Pe): 2.92 ×10⁻⁶ cm/s
- logD heptane ethylene glycol [2]: -0.83
- fraction unbound (in vitro [3]): 0.14
- half-life (in vitro [4]): 32 h
- logD (physchem): -0.64
- IC50 (SSTR2): 0.0156 ± 0.0043 µM
- IC50 (SSTR5): 0.228 ± 0.0419 µM
- AUC 0_24 [15]: 436 ng·h/mL
- AUC 0_48 [15]: 1134 ng·h/mL
- AUC 24_48 [15]: 668 ng·h/mL
- inhibition of unstimulated GH release ([15]; rats, 250 μg/kg s.c., plasma GH by sandwich ELISA over 48 h): significant inhibition
- t1/2 in SIF (pancreatin): over 72 h

Structure (SMILES): C[C@@H](O)[C@@H]1NC(=O)[C@H](CCCCN)NC(=O)[C@@H](Cc2c[nH]c3ccccc23)NC(=O)[C@H](Cc2ccccc2)NC(=O)[C@@H]2CCCN2C(=O)[C@H](Cc2ccccc2)NC1=S [13c] (cyclo(F[dW]K[X12]P))
- Papp ([1]; Pe): 0.96 ×10⁻⁶ cm/s
- logD heptane ethylene glycol [2]: -1.18
- fraction unbound (in vitro [3]): 0.21
- half-life (in vitro [4]): 33 h
- logD (physchem): -1.04
- binding against SSTR2 (in words) (SSTR2): complete loss in binding
- binding against SSTR5 (in words) (SSTR5): complete loss in binding
- half-life (in vitro [5]): 2.5 h

Structure (SMILES): C[C@@H](O)[C@@H]1NC(=O)[C@H](CCCCN)NC(=O)[C@@H](Cc2c[nH]c3ccccc23)NC(=O)[C@H](Cc2ccccc2)NC(=S)[C@@H]2CCCN2C(=O)[C@H](Cc2ccccc2)NC1=O [13e] (cyclo(F[X8][dW]KT))
- level at 0.5 h (in vivo [14]; Sprague Dawley): 38.1 ng/mL
- level at 1 h (in vivo [14]; Sprague Dawley): 57 ng/mL
- half-life (in vivo [14]): 0.6 ± 0.3 h
- Papp ([1]; Pe): 1.92 ×10⁻⁶ cm/s
- logD heptane ethylene glycol [2]: -1.16
- fraction unbound (in vitro [3]): 0.09
- half-life (in vitro [4]): 31 h
- logD (physchem): -0.72
- IC50 (SSTR2): 0.0192 ± 0.0114 µM
- IC50 (SSTR5): 0.232 ± 0.0704 µM

Source: PMC10539501 (Nature Communications, 2023)
